Measurements published in patent US20110257177A1, “BENZYLTHIOTETRAZOLE INHIBITORS OF STORE OPERATED CALCIUM RELEASE” (CalciMedica, Inc., priority 2008, published 2011).
pIC50: −log10 of the molar value.

Test system: JR^251 or RBL cells
Test: Fluorescence-based assay of store-operated calcium entry, IC50 in either JR^251 or RBL cells, or both
Type: cell-based
Description: B. Fluorescence-based Assay of Store-Operated Calcium Entry in RBL-2H3Cells.
RBL-2H3 cells are obtained from ATCC and maintained in complete medium with 10% FBS at 37° C./6% CO2.
The day prior to performing the assay, RBL-2H3 cells are plated in 50 μL of complete medium in a 384 well plate. Cells are grown at 37° C./6% CO2 overnight and grow to 50-60% confluence by the next day. On the assay day, 1.5 μM Fluo-4-AM dye (Invitrogen) in complete medium is added and incubated for 1 hour at RT. Cells are washed twice in Ca^2+-free HBSS buffer and 35 μL Ca^2+-free HBSS buffer is added to each well. 10 μL of a test compound prepared in a Ca^2+-free HBSS solution at 4.5× of the desired concentration is added to a well and incubated for 5 minutes at RT. 10 μL of thapsigargin prepared in a Ca^2+-free HBSS solution at 5.5× of the desired concentration (5.5 uM) is added to each well and incubated for an additional 25 minutes. The initial baseline fluorescence signal is measured with a FLIPR^384 (Molecular Devices) plate reader. 5 μL of 12× calcium in HBSS (12 mM) is added and changes in cellular fluorescence are measured with the FLIPR^384 plate reader. In each well, the change in the fluorescent signal as a function of time due to calcium entry into the cell is determined by calculating the difference between the fluorescent signal measured 7 seconds after calcium addition and the initial baseline fluorescence signal at time zero (t=0). This parameter is designated Upslope. The IC50 value is calculated as the concentration at which 50% of the Upslope is inhibited.
C. Fluorescence-based Assay of Store-Operated Calcium Entry in Jurkat Cells.
Jurkat E6-1 cells were obtained from ATCC and maintained in complete medium with 10% FBS at 37° C./6% CO2.
The day prior to performing the assay, Jurkat E6-1 cells are seeded at a density of 2 million cells/mL in complete medium in a T-175 flask. Cells are grown at 37° C./6% CO2 overnight. On the following day, 1.5 μM Fluo-4-AM dye (Invitrogen) in complete medium is added and incubated for 1 hour at RT. Cells are harvested, washed twice in Ca^2+-free HBSS buffer and plated in 35 μL Ca^2+-free HBSS buffer in a 384 well plate. 10 μL of a test compound prepared in a Ca^2+-free HBSS solution at 4.5× of the desired concentration is added to a well and incubated for 5 minutes at RT. 10 μL of thapsigargin prepared in a Ca^2+-free HBSS solution at 5.5× of the desired concentration (5.5 uM) is added to each well and incubated for an additional 25 minutes. The initial baseline fluorescence signal is measured with a FLIPR^384 (Molecular Devices) plate reader. 5 μL of 12× calcium in HBSS (12 mM) is added and changes in cellular fluorescence are measured with the FLIPR^384 plate reader. In each well, the change in the fluorescent signal as a function of time due to calcium entry into the cell is determined by calculating the difference between the fluorescent signal measured 7 seconds after calcium addition and the initial baseline fluorescence signal at time zero (t=0). This parameter is designated Upslope. The IC50 value is calculated as the concentration at which 50% of the Upslope is inhibited.

Row | Structure (SMILES) | pIC50
1 | Cc1ccccc1CSc1nnnn1-c1cccc(C)c1C [1-(2,3-dimethylphenyl)-5-(2-methylbenzylthio)-1H-tetrazole] | > 5.00
2 | COc1ccc(CSc2nnnn2-c2ccc(C)cc2C)cc1F [1-(2,4-dimethylphenyl)-5-(3-fluoro-4-methoxybenzylthio)-1H-tetrazole] | > 5.00
3 | COc1cccc(CSc2nnnn2-c2ccc(C)cc2C)c1 [1-(2,4-dimethylphenyl)-5-(3-methoxybenzylthio)-1H-tetrazole] | > 5.00
4 | Cc1ccc(C)c(-n2nnnc2SC(F)(F)c2c(F)c(F)c(F)c(F)c2F)c1 [1-(2,5-dimethylphenyl)-5-(perfluorobenzylthio)-1H-tetrazole] | > 5.00

Results, then the compound that gave them:

Row | pIC50 | Structure (SMILES)
5 | > 5.00 | CCOc1ccc(C(C)=O)cc1CSc1nnnn1-c1cc(C)ccc1C [1-(3-((1-(2,5-dimethylphenyl)-1H-tetrazol-5-ylthio)methyl)-4-ethoxyphenyl)ethanone]
6 | > 5.00 | Cc1ccc(C)c(-n2nnnc2SCc2ccccc2Br)c1 [5-(2-bromobenzylthio)-1-(2,5-dimethylphenyl)-1H-tetrazole]
